Assays:
U2OS cells = test: GFP-LC3 / LAMP1-RFP co-localization (autolysosome formation); format: cell-based, human; conditions: compound 1 or rapamycin and compound 1, 4 hours
Protocol: Confocal microscopic images are shown in FIG. 13A of U2OS cells that were co-transfected with a GFP-LC3B expression vector to label autophagosomes green and a LAMP1-RFP expression vector to label lysosomes red. Cells were then treated for 4 hrs with 1 μM rapamycin to induce autophagy, or with 1 μM compound 1 to disrupt autophagy, or with both 1 μM rapamycin and 1 μM compound 1. Cells were then fixed and viewed by confocal microscopy. Nuclei were stained with DAPI. […] The mean±SEM results from 50 cells is given for two independent experiments.
To determine whether or not the absence of an acidic environment resulted from failure of lysosomes to fuse with autophagosomes, cells were transfected with both GFP-LC3 and LAMP1-RFP expression vectors, and then cultured for 4 hours in the presence of vehicle, rapamycin, or both rapamycin and compound 1 (FIG. 13). Rapamycin is an established inducer of autophagy (42, 43). As expected, rapamycin induced accumulation of GFP-LC3 labeled autophagosomes (green), some of which were autolysosomes, as shown by co-localization with LAMP1-RFP on control cells. In contrast, GFP-LC3 and LAMP1-RFP labeled different populations of vesicles in cells cultured with either compound 1 or rapamycin and compound 1, despite the fact that the density of autophagosomes was at least 3-fold greater.

lysosomes in U2OS cells = test: Ratiometric analysis of lysosomal pH (Oregon Green 488 dextran); format: cell-based, human; conditions: 1 μM
Protocol: U2OS cells were cultured for 4 hr with vehicle, 1 μM compound 1, or 50 mM ammonium chloride. The results of two independent experiments were averaged together. Data were analyzed by one-way ANOVA (p=0.0005) and Tukey's post-hoc test (p<0.0001). Scale bars indicate 10 μm. The results of three independent experiments were averaged together. […] Cells that had been transfected with LAMP1-RFP expression vector were then stained with LysoSensor Green DND-189, a fluorescent probe that fluoresces only in the acidic compartments of live cells. […] Bars represent 20 μm.
To determine the pH of individual lysosomes, dual-wavelength ratio imaging was conducted as previously describe (102), with minor modifications. U2OS and RAW264.7 cells were cultured in imaging chambers (Cellvis, Mountain View Calif., Cat #C4-1.5/h-N) in complete culture medium at 37° C. and 5% CO2. Cells were incubated overnight with 50 μg/mL Oregon Green 488 dextran (Invitrogen, Carlsbad, Calif., D7170). The following day, the cells were cultured with dextran-free complete culture medium for at least 2 h to ensure lysosomal targeting of the probe. Cells were then cultured with compound 1 for the indicated times and concentrations. […]

[1] = test system: LC3-II and p62 in U2OS cells; test: Accumulation of autophagosome markers LC3-II and p62, Western immuno-blotting; format: cell-based, human
Protocol: Cells were cultured for 4 hrs before total cell extracts were subjected to Western immuno-blotting for LC3, p62 and β-actin. Blot was developed with film. […] (C) U2OS cells were cultured for the times indicated in the presence of 1.2 μM compound 1 to produce 80% of the maximum observed in FIG. 10A. Total cell extracts were assayed at the times indicated. […] All blots were stained with Ponceau S […].
(§1) Total cell lysates were prepared (in 4× dye). Proteins were fractionated at 200V in a NuPAGE 4-12% bis-tris polyacrylamide gel (NP0323, Novex) using NuPAGE MES running buffer (NP0002, Novex) and then stained with PageBlue (24260, Thermo Scientific) in order to quantify the relative amount of histones in each sample. […] Proteins were wet-transferred onto nitrocellulose membranes (162-0112, Bio-Rad) using NuPAGE transfer buffer (NP-0006-1, Novex) for 1 hour at 30V. Membranes were then stained with dilute Ponceau S solution, blocked in 5% milk for 30 minutes at room temperature, and incubated overnight at 4° C. in primary antibody. Membranes were washed with phosphate buffered saline with tween 20 (PBST) three times for 10 min. each, incubated with secondary antibodies in 5% milk for 1 hour, washed three times with PBST again, covered in ECL (SuperSignal West Pico chemiluminescent substrate, 34080, Thermo Scientific) and exposed to film (HyBlot ES, E3218, Denville Scientific).

[2] = test system: cathepsin D (CTSD) in U2OS cells; test: Cathepsin D maturation, Western immuno-blotting; format: cell-based, human; conditions: 4 h
Protocol: Mature and immature cathepsin D (CTSD), LC3-I, LC3-II, and β-actin proteins were identified by Western immuno-blotting, under the same conditions, and detected with specific antibodies and by co-fractionation with molecular mass markers (kDa). Cathepsin D maturation via proteolysis requires acidity.
as §1

468 human kinases = test: DiscoverX KINOMEscan profile at 10 μM; format: binding; conditions: panel of 468 human kinases
Protocol: Each kinase was tagged with a unique DNA sequence that allowed the amount of protein bound to the solid support to be quantified by PCR. The top three targets for compound 1 were PIKFYVE, PIP4K2C and MTOR. […] Dissociation constants (Kd) were determined from the amount of kinase captured on the solid support as a function of the test compound concentration (nM) on a log10 scale. Mean Kd values (±range) are given for each compound. The ratio of PIP4K2C to PIKFYVE indicates the relative specificity for these two kinases.
To address this hypothesis, a panel of 468 human kinases were screened for their ability to bind compound 1. […] The top two candidates were PIKFYVE (phosphoinositide kinase FYVE-type zinc finger containing) and PIP4K2C (phosphatidylinositol-5-phosphate 4-kinase). PIKFYVE is a kinase that is essential for mouse development (49) and that prevents endosome enlargement and cytoplasmic vacuolization (50, 51). PIP4K2C is a kinase that is not essential for mouse growth and viability, but it is essential for the immune system (52), mTORC1 signaling (53), and regulation of autophagy (54). The third candidate was MTOR, a kinase that regulates autophagy (55). Therefore, the binding constants (Kd) for all five members of the compound 1-family were determined for each of these three proteins from two independent titration curves, as shown for compound 1.

Number of kinases with binding affinities of 25% or greater (468 human kinases): ten
SMILES: C1=Nc2ccccc2/C1=C/NNc1nc(Nc2ccccc2)nc(N2CCOCC2)n1 [compound 1]
Density of autophagosomes relative to rapamycin alone (U2OS cells): at least 3 fold | Mean pH of lysosomes (lysosomes in U2OS cells; 4 h, untreated cells 5.3): 5.0 | Effect on lysosomal acidity (lysosomes in U2OS cells; 4 hours): did not affect lysosomal acidity significantly | Delay of p62 accumulation relative to LC3-II [1]: about 3 hours | Sensitivity of inhibition of lysosome fission relative to accumulation of autophagosomes [1]: at least 5 fold | Concentration required for near maximum levels of LC3-II accumulation ([1]; 4 hrs): 0.1 to 0.5 µM | Accumulation of LC3-II ([1]; U2OS cells): comparable increase in LC3-II | Time to accumulation of LC3-II and p62 ([1]; U2OS cells): ≤ 4 h | Cellular level of mature cathepsin D relative to vehicle treated cells [2]: about 50%

— US11471460B2, “Autophagy modulators for use in treating cancer” (The United States of America,as represented by the …, priority 2017, dated 2022)
